Results from paper PMC12040169 (PLOS Biology, 2025).

Assay: in vitro
Details: human, hela cells, % viability

Q: For Cc1c(C(=O)N2CCC(CN)C2)nnn1-c1ccc2ncccc2c1 (stereo not shown) [CBK304734], which viability at 28.5 h, 10 µM is on record?
A: 101%

Q: With Cc1cc(NC(=O)Cn2nc(C(F)(F)F)c(Cl)c2C)no1 [CBK018709] as the compound, how does the viability at 28.5 h, 10 µM read?
A: 87.3%

Q: With COc1ccc(NS(=O)(=O)c2c(Cl)cccc2Cl)c(C(=O)NCc2ccccc2)c1 [CBK113952] as the compound, how does the viability at 28.5 h, 10 µM read?
A: 79.8%

Q: With Cc1ccc(-c2cc(=O)c3cc(OCC(=O)Nc4sc5c(c4C#N)CCCC5)ccc3o2)cc1 [CBK269062] as the compound, how does the viability at 28.5 h, 10 µM read?
A: 96.6%

Q: With O=C(Cn1c(-c2ccccn2)nc2ccccc21)NCCN1CCOCC1 [CBK267214] as the compound, how does the viability at 28.5 h, 10 µM read?
A: 95%

Q: With CCCC(=O)N1CCC(Cc2ccc(-c3cccc(C)c3)cc2)(C(=O)NC(C)C)CC1 [CBK285760] as the compound, how does the viability at 28.5 h, 10 µM read?
A: 93.9%

Q: With CCCN1C(=O)c2ccc(C(=O)Nc3cc(C(=O)O)cc(C(=O)O)c3)cc2C1=O [CBK266441] as the compound, how does the viability at 28.5 h, 10 µM read?
A: 97%

Q: For COc1ccc(OC)c(-n2cnc3c2NC(=O)CC3c2ccccc2Cl)c1 (stereo not shown) [CBK287983], which viability at 28.5 h, 10 µM is on record?
A: 91.1%

Q: With Cc1ccc2cc(C(=O)N3CCCCC3CN3CCOCC3)[nH]c2c1 (stereo not shown) [CBK304374] as the compound, how does the viability at 28.5 h, 10 µM read?
A: 90.4%

Q: With O=c1[nH]c(=O)c2nnc(N/N=C\c3ccc(O)cc3)nc2[nH]1 [CBK263312] as the compound, how does the viability at 28.5 h, 10 µM read?
A: 94.1%

Q: Which viability at 28.5 h, 10 µM does the source give for O=C(NCc1ccc2c(c1)OCO2)c1ccc2c(c1)C(=O)N(Cc1cccnc1)C2=O [CBK267824] here?
A: 89.3%

Q: Which viability at 28.5 h, 10 µM does the source give for O=C(Cc1ccsc1)N1CCN(c2ncccn2)CC1 [CBK144525] here?
A: 105%

Q: For O=C(NCc1c(Cl)cccc1Cl)N1CCCCC1CO (stereo not shown) [CBK156184], which viability at 28.5 h, 10 µM is on record?
A: 99.5%

Q: With CSCCN1CCCN(c2nccc(OCC3COc4ccccc4O3)n2)CC1 (stereo not shown) [CBK083978] as the compound, how does the viability at 28.5 h, 10 µM read?
A: 91.1%

Q: With O=C1N(Cc2ccc(Br)cc2)CCc2cncn21 [CBK021187] as the compound, how does the viability at 28.5 h, 10 µM read?
A: 79.7%

Q: Which viability at 28.5 h, 10 µM does the source give for COc1cccc(C(=O)COC(=O)c2ccc3c(c2)C(=O)N(c2ccc(C(C)=O)cc2)C3=O)c1 [CBK264872] here?
A: 84%

Q: For COc1ccccc1CN1CCC(Cc2ccccc2-c2ccccc2)(C(N)=O)CC1 [CBK285719], which viability at 28.5 h, 10 µM is on record?
A: 101%

Q: With Cc1nc(CC(=O)Nc2ccc(N3CCOCC3)cc2)cs1 [CBK304339] as the compound, how does the viability at 28.5 h, 10 µM read?
A: 95.8%

Q: For CCOc1ccc(-c2cncc(NC3CCC(O)CC3)n2)cc1 (stereo not shown) [CBK065877], which viability at 28.5 h, 10 µM is on record?
A: 88.9%

Q: With O=c1[nH]c(=O)c2cc(S(=O)(=O)NC3(c4ccccc4)CCCC3)ccc2[nH]1 [CBK286378] as the compound, how does the viability at 28.5 h, 10 µM read?
A: 110%

Q: Which viability at 28.5 h, 10 µM does the source give for COC(=O)c1ccccc1NC(=O)N1CCN(S(=O)(=O)c2ccc(Cl)cc2)CC1 [CBK266860] here?
A: 88%

Q: With Cc1c(Cl)cccc1S(=O)(=O)Nc1cccc(C(=O)Nc2ccc(F)cc2)c1 [CBK038983] as the compound, how does the viability at 28.5 h, 10 µM read?
A: 99.3%

Q: Which viability at 28.5 h, 10 µM does the source give for Cn1cc([C@@H]2O[C@H](CO)[C@H](O)C2O)c(=O)n(C)c1=O (stereo partly shown) [CBK201191] here?
A: 97.1%

Q: Which viability at 28.5 h, 10 µM does the source give for CN1CCN(c2cccc(-c3ccsc3)n2)CC1 [CBK036916] here?
A: 90.2%

Q: With O=C(Oc1ccc2c(=O)c(Oc3ccc(-c4ccccc4)cc3)coc2c1)c1cccnc1 [CBK264479] as the compound, how does the viability at 28.5 h, 10 µM read?
A: 97.6%

Q: For CC1(C)NC(=O)N(CCCC(=O)NCc2coc(-c3cccs3)n2)C1=O [CBK237157], which viability at 28.5 h, 10 µM is on record?
A: 105%

Q: For COc1ccc(CCc2nc(C(F)(F)F)cc(=O)[nH]2)cc1 [CBK003679], which viability at 28.5 h, 10 µM is on record?
A: 87.3%

Q: Which viability at 28.5 h, 10 µM does the source give for CS(=O)(=O)N1CC2(CCN(Cc3ccc(OC(F)(F)F)cc3)CC2)c2ccccc21 [CBK126668] here?
A: 99.4%

Q: With O=C1N(Cc2cccc3ccccc23)c2ccccc2C1(c1ccc(O)cc1)c1ccc(O)cc1 [CBK261410] as the compound, how does the viability at 28.5 h, 10 µM read?
A: 88.4%

Q: For O=C(c1cncs1)N1CCn2nc(C(O)Cc3ccccc3)cc2C1 (stereo not shown) [CBK306754], which viability at 28.5 h, 10 µM is on record?
A: 90.6%

Q: For CCN1CCN(C(=O)c2ccc(N(C)C)cc2)CC1 [CBK200252], which viability at 28.5 h, 10 µM is on record?
A: 96.4%

Q: For Cc1nc(SCC(=O)N2CCC(C)CC2)c2c3c(sc2n1)CCC3 [CBK265944], which viability at 28.5 h, 10 µM is on record?
A: 86.1%

Q: Which viability at 28.5 h, 10 µM does the source give for O=C(NCCCC1CCOC1)c1cnn(-c2ccc(F)cc2)c1 (stereo not shown) [CBK283288] here?
A: 92.5%

Same assay, conditions: human, hela cells, % viability, bulk resorufin, single well

Q: Which viability at 28.5 h, 10 µM does the source give for CCOC(=O)C1(c2ccccc2)CCN(C(=O)c2ccc(S(N)(=O)=O)cc2)CC1 [CBK132200] here?
A: 99.7%
